From patent US12310929B2, “Use of rasagiline for the treatment of restless legs syndrome” (TEVA PHARMACEUTICAL INDUSTRIES, LTD., priority 2006, dated 2025)
Like-named read-outs stand apart in the source and are kept apart here.

System: RLS subjects
Conditions: for IRLS Total (Absolute Change) Mean / IRLS Total (Absolute Change) Median / IRLS Total (Percent Change) Mean / IRLS Total (Percent Change) Median / IRLS Total Mean / IRLS Total Median: rasagiline 1 mg/day oral
Procedure: This was the first clinical study in which rasagiline was administered to RLS subjects. The dosage regimen of 1 mg/day rasagiline was chosen based on the optimal dosage regimen for the symptomatic treatment of PD. […] Therefore, in the event that a subject could not tolerate the 1 mg daily dose of rasagiline, a daily dose of 0.5 mg rasagiline was permitted. Rasagiline was administered orally as a tablet. Both the 1 mg and 0.5 mg rasagiline tablets were beveled round tablets, flat, white to off-white, scored on one side, plain on the other side. Teva Pharmaceutical Industries Ltd. was responsible for the manufacture and primary packaging of study medications according to current Good Manufacturing Practice (cGMP) principles and guidelines applicable to investigational medicinal products.
IRLS (International Restless Legs Scale)
The IRLS scale is comprised of 10 items designed to assess the severity of sensory and motor symptoms, sleep disturbance, daytime somnolence, and impact on activities of daily living and mood associated with RLS. All items receive a grade in the range 0 to 4 (0=absence of a problem, 4=very severe problem) giving a maximum score of 40.
The investigator scored subjects on the IRLS at all scheduled study visits. The primary efficacy endpoint was based on the change from baseline to weeks 2, 4, and 8 in IRLS scores.
Each of 10 items were graded on a scale between 0 and 4 where 0 denotes the absence of a problem, and 4 a very severe problem.

C#CCN[C@@H]1CCc2ccccc21 [rasagiline, R-(+)-N-propargyl-1-aminoindan]
IRLS Total (Absolute Change) Mean (VISIT WEEK 1, N=2): −3.00 | IRLS Total (Absolute Change) Median (VISIT WEEK 1, N=2): −3.00 | IRLS Total (Percent Change) Mean (VISIT WEEK 1, N=2): −11.54% | IRLS Total (Percent Change) Median (VISIT WEEK 1, N=2): −11.54% | IRLS Total Mean (VISIT WEEK 1, N=2): 29.00 | IRLS Total Median (VISIT WEEK 1, N=2): 29.00 | IRLS Total (Absolute Change) Mean (VISIT WEEK 3, N=1): −14.00 | IRLS Total (Absolute Change) Median (VISIT WEEK 3, N=1): −14.00 | IRLS Total (Percent Change) Mean (VISIT WEEK 3, N=1): −53.85% | IRLS Total (Percent Change) Median (VISIT WEEK 3, N=1): −53.85% | IRLS Total Mean (VISIT WEEK 3, N=1): 12.00 | IRLS Total Median (VISIT WEEK 3, N=1): 12.00 | IRLS Total (Absolute Change) Mean (VISIT WEEK 4, N=2): −6.50 | IRLS Total (Absolute Change) Median (VISIT WEEK 4, N=2): −6.50 | IRLS Total (Percent Change) Mean (VISIT WEEK 4, N=2): −25.00% | IRLS Total (Percent Change) Median (VISIT WEEK 4, N=2): −25.10% | IRLS Total Mean (VISIT WEEK 4, N=2): 25.50 | IRLS Total Median (VISIT WEEK 4, N=2): 25.50 | mean IRLS Rating Scale score (after 2 weeks, 2 subjects, baseline mean 32): 29 | IRLS Rating Scale score (at 4 weeks, one subject): 13 | decrease from baseline in IRLS Rating Scale score (at 4 weeks, one subject): 50% | IRLS score (by 8 weeks, remaining subject): 12 | decrease from baseline in IRLS score (by 8 weeks, remaining subject): 54% | effect on the symptoms of RLS (in at least a subset of RLS patients): clinically significant effect | IRLS Rating Scale score (week 4, subject who discontinued, unchanged from baseline): 38
